According to ChEMBL document CHEMBL1201862, “PubChem BioAssay data set” (2004):
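These data come from cells grown in 96-well plates and exposed to compound for 48 hours at five concentrations. At the GI50, growth is halved.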 Active and inactive are the calls of the source. No stated cut-off is given here; in the data, active = GI50 up to about 1.1 µM and inactive = higher.

What was measured:
Assay in all cases: NCI anticancer screen, dose series, 48 h
SK-OV-3 = tested on: SK-OV-3
OVCAR-5 = tested on: OVCAR-5
RXF 393 = tested on: RXF 393
HT-29 = tested on: HT-29
OVCAR-4 = tested on: OVCAR-4
M14 = tested on: M14
SN12C = tested on: SN12C
SW-620 = tested on: SW-620
LOX IMVI = tested on: LOX IMVI
UO-31 = tested on: UO-31
TK-10 = tested on: TK-10
A498 = tested on: A498
U-251 = tested on: U-251
OVCAR-3 = tested on: OVCAR-3
UACC-62 = tested on: UACC-62
HOP-62 = tested on: HOP-62
Malme-3M = tested on: Malme-3M
A549 = tested on: A549
HCC 2998 = tested on: HCC 2998
SR = tested on: SR

What does the source list for `CC(=O)O[C@H]1C(=O)[C@@]2(C)C(C(OC(=O)c3ccccc3)[C@]3(O)CC(OC(=O)C(O)C(NC(=O)c4ccccc4)c4ccc(C)cc4)C(C)=C1C3(C)C)[C@]1(OC(C)=O)CO[C@@H]1C[C@@H]2O` (some centres undefined)?
GI50 (SK-OV-3): 0.0117 µM (active); GI50 (OVCAR-5): 0.0618 µM (active); GI50 (RXF 393): 0.0074 µM (active); GI50 (HT-29): 0.0094 µM (active); GI50 (OVCAR-4): 3.75 µM (inactive); GI50 (M14): 0.0161 µM (active); GI50 (SN12C): 0.0545 µM (active); GI50 (SW-620): 0.00555 µM (active); GI50 (LOX IMVI): 0.033 µM (active); GI50 (UO-31): 2 µM (inactive); GI50 (TK-10): 3.08 µM (inactive); GI50 (A498): 12 µM (inactive); GI50 (U-251): 0.0197 µM (active); GI50 (OVCAR-3): 0.00673 µM (active); GI50 (UACC-62): 0.043 µM (active); GI50 (HOP-62): 0.0995 µM (active); GI50 (Malme-3M): 0.0538 µM (active); GI50 (A549): 0.0179 µM (active)

Which results are given for `Nc1nc(=O)n([C@@H]2CC[C@H](CO)O2)cc1F`?
GI50 (SK-OV-3): > 100 µM (inactive); GI50 (OVCAR-5): > 100 µM (inactive); GI50 (RXF 393): > 100 µM (inactive); GI50 (HT-29): > 100 µM (inactive); GI50 (OVCAR-4): > 100 µM (inactive); GI50 (M14): > 100 µM (inactive); GI50 (SN12C): > 100 µM (inactive); GI50 (SW-620): > 100 µM (inactive); GI50 (LOX IMVI): > 100 µM (inactive); GI50 (UO-31): > 100 µM (inactive); GI50 (HCC 2998): 42.8 µM (inactive); GI50 (TK-10): > 100 µM (inactive); GI50 (U-251): > 100 µM (inactive); GI50 (OVCAR-3): > 100 µM (inactive); GI50 (HOP-62): > 100 µM (inactive); GI50 (Malme-3M): > 100 µM (inactive); GI50 (A549): > 100 µM (inactive)

Which results are given for `Oc1ccc2ccccc2c1/N=N/c1ccc(Br)cc1`?
GI50 (SK-OV-3): 17.4 µM (inactive); GI50 (OVCAR-5): 63 µM (inactive); GI50 (RXF 393): > 100 µM (inactive); GI50 (HT-29): > 100 µM (inactive); GI50 (OVCAR-4): 27.8 µM (inactive); GI50 (M14): 87.5 µM (inactive); GI50 (SR): > 100 µM (inactive); GI50 (SN12C): > 100 µM (inactive); GI50 (SW-620): > 100 µM (inactive); GI50 (LOX IMVI): > 100 µM (inactive); GI50 (UO-31): > 100 µM (inactive); GI50 (TK-10): 59.6 µM (inactive); GI50 (U-251): > 100 µM (inactive); GI50 (OVCAR-3): 86.9 µM (inactive); GI50 (UACC-62): > 100 µM (inactive); GI50 (HOP-62): 21 µM (inactive); GI50 (Malme-3M): 66.1 µM (inactive); GI50 (A549): > 100 µM (inactive)

For `COc1cc(C2C(Cl)C(=O)N2NC(=O)c2ccc(N)cc2)ccc1O` (centres undefined), which GI50 (SK-OV-3) is on record?
The GI50 was 60.5 µM (inactive).

What about the GI50 (OVCAR-5) of the same molecule?
Its GI50 is 56.6 µM (inactive).

What about the GI50 (HT-29) of the same molecule?
The GI50 was 23.4 µM (inactive).

And the GI50 (OVCAR-4)?
Its GI50 is 81.3 µM (inactive).

What about the GI50 (M14) of the same molecule?
Its GI50 is 51.8 µM (inactive).

And the GI50 (SN12C)?
Its GI50 is 32 µM (inactive).

What about the GI50 (SW-620) of the same molecule?
The GI50 was 17.2 µM (inactive).

And the GI50 (LOX IMVI)?
The GI50 was 14.8 µM (inactive).

What about the GI50 (UO-31) of the same molecule?
The GI50 was > 100 µM (inactive).

And the GI50 (HCC 2998)?
The GI50 was 20.2 µM (inactive).

And the GI50 (TK-10)?
The GI50 was > 100 µM (inactive).

And the GI50 (A498)?
Its GI50 is > 100 µM (inactive).

What about the GI50 (U-251) of the same molecule?
Its GI50 is 18 µM (inactive).

What about the GI50 (OVCAR-3) of the same molecule?
The GI50 was 16.6 µM (inactive).

And the GI50 (UACC-62)?
Its GI50 is 64.1 µM (inactive).

And the GI50 (HOP-62)?
The GI50 was 35.9 µM (inactive).

What about the GI50 (Malme-3M) of the same molecule?
The GI50 was 16.5 µM (inactive).

And the GI50 (A549)?
The GI50 was > 100 µM (inactive).

With `Cc1ccc2nc(CN3CCCC(O)C3)cc(=O)n2c1` (centres undefined) as the molecule, how does the GI50 (SK-OV-3) read?
The GI50 was > 100 µM (inactive).

And the GI50 (OVCAR-5)?
Its GI50 is > 100 µM (inactive).

And the GI50 (HT-29)?
Its GI50 is > 100 µM (inactive).

What about the GI50 (OVCAR-4) of the same molecule?
Its GI50 is > 100 µM (inactive).

What about the GI50 (M14) of the same molecule?
Its GI50 is > 100 µM (inactive).

What about the GI50 (SR) of the same molecule?
Its GI50 is > 100 µM (inactive).

What about the GI50 (SN12C) of the same molecule?
Its GI50 is > 100 µM (inactive).

What about the GI50 (SW-620) of the same molecule?
Its GI50 is > 100 µM (inactive).

And the GI50 (LOX IMVI)?
The GI50 was > 100 µM (inactive).

What about the GI50 (UO-31) of the same molecule?
Its GI50 is > 100 µM (inactive).

What about the GI50 (HCC 2998) of the same molecule?
Its GI50 is > 100 µM (inactive).

What about the GI50 (TK-10) of the same molecule?
The GI50 was > 100 µM (inactive).

What about the GI50 (U-251) of the same molecule?
The GI50 was > 100 µM (inactive).

And the GI50 (OVCAR-3)?
Its GI50 is > 100 µM (inactive).

And the GI50 (UACC-62)?
Its GI50 is > 100 µM (inactive).

What about the GI50 (HOP-62) of the same molecule?
The GI50 was > 100 µM (inactive).

What about the GI50 (Malme-3M) of the same molecule?
The GI50 was > 100 µM (inactive).

What about the GI50 (A549) of the same molecule?
Its GI50 is > 100 µM (inactive).

`COc1ccc2c(c1)OC1c3ccccc3OCC21` (centres undefined) was tested. Which GI50 (SK-OV-3) did it give?
Its GI50 is > 100 µM (inactive).

And the GI50 (OVCAR-5)?
The GI50 was > 100 µM (inactive).

And the GI50 (RXF 393)?
The GI50 was 77.4 µM (inactive).

And the GI50 (HT-29)?
Its GI50 is 25.6 µM (inactive).

What about the GI50 (OVCAR-4) of the same molecule?
Its GI50 is > 100 µM (inactive).

And the GI50 (M14)?
The GI50 was 93.5 µM (inactive).

What about the GI50 (SN12C) of the same molecule?
The GI50 was > 100 µM (inactive).

What about the GI50 (SW-620) of the same molecule?
The GI50 was 96.8 µM (inactive).

What about the GI50 (LOX IMVI) of the same molecule?
The GI50 was 81.3 µM (inactive).

And the GI50 (UO-31)?
Its GI50 is 48.9 µM (inactive).

And the GI50 (HCC 2998)?
Its GI50 is 39.9 µM (inactive).

What about the GI50 (TK-10) of the same molecule?
Its GI50 is > 100 µM (inactive).

And the GI50 (A498)?
The GI50 was > 100 µM (inactive).

And the GI50 (U-251)?
Its GI50 is > 100 µM (inactive).

What about the GI50 (OVCAR-3) of the same molecule?
The GI50 was 72.1 µM (inactive).

What about the GI50 (UACC-62) of the same molecule?
The GI50 was > 100 µM (inactive).

What about the GI50 (HOP-62) of the same molecule?
Its GI50 is > 100 µM (inactive).

Which results are given for `COc1cc(NS(C)(=O)=O)ccc1Nc1c2ccccc2nc2ccccc12` [AMSACRINE]?
GI50 (SK-OV-3): 0.398 µM (active); GI50 (OVCAR-5): 1.58 µM (inactive); GI50 (RXF 393): 1.55 µM (inactive); GI50 (HT-29): 1.77 µM (inactive); GI50 (OVCAR-4): 4.05 µM (inactive); GI50 (M14): 0.266 µM (active); GI50 (SN12C): 0.131 µM (active); GI50 (SW-620): 0.561 µM (active); GI50 (LOX IMVI): 0.179 µM (active); GI50 (UO-31): 0.661 µM (active); GI50 (HCC 2998): 1.24 µM (inactive); GI50 (TK-10): 2.63 µM (inactive); GI50 (U-251): 0.166 µM (active); GI50 (OVCAR-3): 2.67 µM (inactive); GI50 (UACC-62): 0.285 µM (active); GI50 (HOP-62): 0.084 µM (active); GI50 (Malme-3M): 0.611 µM (active); GI50 (A549): 0.049 µM (active)
